Converted amounts (≈) assume the structure as drawn. Where two headings read alike, the source gives them in different places.
Assays:
Assay in all cases: In vitro activity: M.I.C. on nutrient agar plates, surface inoculation, 24 h at 37°C
Assay type in all cases: cell-based
Staphylococcus aureus = conditions: S. aureus, Peptid or Antibiotikum alone; for MIC: Staphylococcus aureus, 24 h
Excerpt: (§1) Es wurden konzentrierte Lösungen von Gemischen der Verbindungen der Formel I und dem Antibiotikum in den gewünschten Gewichtsverhältnissen hergestellt, die dann beliebig verdünnt wurden. Aliquote Teile der verdünnten Lösungen wurden mit einem geeigneten Nähragar in Petrischalen gemischt. Zum Vergleich wurden ähnliche Agar-Schalen hergestellt, die ausser dem Nährmedium die Verbindung I bzw. das Antibiotikum alleine enthielten. Nach Oberflächeninokulation mit den Mikroorganismen wurde 24 Stunden bei 37°C aufbewahrt und dann die minimale Hemmkonzentration (M.I.C.) bestimmt und die F.I.C.-Indexe berechnet. Die Ergebnisse unter Verwendung repräsentativer Verbindungen der Formel I, nämlich (1R)-1-(N-Sarcosyl-L-norvalyl-L-norvalylamino)-ethylphosphonsäure, und (1R)-1-(N-Methyl-L-leucyl-L-norvalyl-L-norvalylamino)-ethylphosphonsäure und repräsentativer Antibiotika, nämlich Cephalexin und D-Cycloserin, sind in den folgenden Tabellen I-III zusammengestellt..

Streptococcus faecalis = conditions: S. faecalis, Peptid or Antibiotikum alone
Excerpt: as §1

Streptococcus pyogenes = conditions: S. pyogenes, Peptid or Antibiotikum alone
Excerpt: as §1

Escherichia coli = conditions: E. coli, Peptid or Antibiotikum alone
Excerpt: as §1

Proteus mirabilis = conditions: P. mirabilis, Peptid or Antibiotikum alone
Excerpt: as §1

Streptococcus agalactiae = conditions: S.agalactiae, Peptid or Antibiotikum alone
Excerpt: as §1

[1] = tested on: Streptococcus dysgalactiae; conditions: S.dysgalactiae, Peptid or Antibiotikum alone
Excerpt: as §1

CCC[C@H](NC(=O)[C@H](CC(C)C)NC)C(=O)N[C@@H](CCC)C(=O)N[C@@H](C)P(=O)(O)O [(1R)-1-(N-Methyl-L-leucyl-L-norvalyl-L-norvalylamino)-ethylphosphonsäure]
M.I.C. (Staphylococcus aureus): >64 µg/mL
M.I.C. (Streptococcus faecalis): 2 µg/mL
M.I.C. (Streptococcus pyogenes): >64 µg/mL

CCC[C@H](NC(=O)CNC)C(=O)N[C@@H](CCC)C(=O)N[C@@H](C)P(=O)(O)O [(1R)-1-(N-Sarcosyl-L-norvalyl-L-norvalylamino)-ethylphosphonsäure]
M.I.C. (Escherichia coli): 2 µg/mL
M.I.C. (Proteus mirabilis): >128 µg/mL
M.I.C. (Staphylococcus aureus): >128 µg/mL
M.I.C. (Streptococcus agalactiae): 45.2 µg/mL
M.I.C. [1]: 2.8 µg/mL
M.I.C. (Streptococcus faecalis): 90.5 µg/mL
M.I.C. (Streptococcus pyogenes): 90.5 µg/mL

CC1=C(C(=O)O)N2C(=O)[C@@H](NC(=O)[C@H](N)c3ccccc3)[C@H]2SC1 [Cephalexin]
MIC (Proteus mirabilis; Proteus mirabilis, 24 h): 22.6 µg/mL (≈ 65.1 µM)
M.I.C. (Staphylococcus aureus): 64 µg/mL
MIC (Staphylococcus aureus): 45.2 µg/mL (≈ 130 µM)
MIC (Streptococcus faecalis; Enterococcus faecalis, 24 h): 128 µg/mL (≈ 368 µM)
M.I.C. (Streptococcus pyogenes): 8 µg/mL
MIC (Streptococcus pyogenes; Streptococcus pyogenes, 24 h): 11.3 µg/mL (≈ 32.5 µM)

N[C@@H]1CONC1=O [D-Cycloserin]
MIC (Escherichia coli; Escherichia coli, 24 h): 32 µg/mL (≈ 313 µM)
MIC (Staphylococcus aureus; read-out: M.I.C.): 16 µg/mL (≈ 157 µM)
MIC (Streptococcus agalactiae; Streptococcus agalactiae, 24 h): 90.5 µg/mL (≈ 886 µM)
MIC ([1]; Streptococcus dysgalactiae, 24 h): 128 µg/mL (≈ 1250 µM)

From patent publication EP0026409A1, “Combinations of active ingredients, pharmaceutical preparations, as well as their preparation” (F. HOFFMANN-LA ROCHE & CO. Aktiengesellschaft, priority 1979, dated 1981)
